Results on four compounds are retold here after ChEMBL document CHEMBL1139284, “Synthesis and evaluation of novel photoreactive alpha-amino acid analog carrying acidic and cleavable functions” (Bioorg Med Chem Lett, 2009).

The source made the active and inactive calls. The calls are words filed in the database; no cut-off is given here.

The target in experiment [1] is Glutamyl endopeptidase (Staphylococcus aureus) (UniProt P0C1U8). As to the kind of experiment: Binding affinity to Staphylococcus aureus V8 glutamyl endopeptidase after 40 mins of UV irradiation by photoaffinity labeling assay.
Glutamyl endopeptidase (Staphylococcus aureus), sequence (P0C1U8 whole entry): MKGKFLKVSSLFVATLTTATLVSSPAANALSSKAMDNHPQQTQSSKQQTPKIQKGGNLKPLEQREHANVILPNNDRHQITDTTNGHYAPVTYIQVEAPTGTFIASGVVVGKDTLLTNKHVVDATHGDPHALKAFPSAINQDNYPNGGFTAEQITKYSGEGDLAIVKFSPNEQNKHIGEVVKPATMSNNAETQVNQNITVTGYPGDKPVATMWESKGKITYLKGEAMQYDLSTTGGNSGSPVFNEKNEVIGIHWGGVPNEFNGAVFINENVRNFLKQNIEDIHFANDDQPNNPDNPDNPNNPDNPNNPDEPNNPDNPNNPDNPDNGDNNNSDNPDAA
The next experiment deals with Glutamyl endopeptidase (Staphylococcus aureus, UniProt P0C1U8). As to the kind of experiment: Binding affinity to Staphylococcus aureus V8 glutamyl endopeptidase. As to conditions: read-out: Ki(app).
Glutamyl endopeptidase, sequence (P0C1U8 whole entry): as above

For `CC(C)(C)OC(=O)N[C@@H](CS(=O)(=O)NC(=O)c1ccccc1)C(N)=O`, the result in experiment [1] was Active.
For the compound `CC(C)(C)OC(=O)N[C@@H](CCC(=O)OCc1ccccc1)C(N)=O`, in experiment [1], the outcome was inactive.
Turning to `CC(C)(C)OC(=O)N[C@@H](CS(=O)(=O)NC(=O)c1ccc(C2(C(F)(F)F)N=N2)cc1)C(=O)NCCOCCOCCNC(=O)CCCC[C@@H]1SCC2NC(=O)NC21` (some centres undefined), the Ki at Glutamyl endopeptidase worked out at 162 µM.
`CC(C)(C)OC(=O)N[C@@H](CCC(=O)O)C(N)=O`: the outcome in experiment [1] was Active.
